Laboratory results published in patent publication US20240108634A1, “COMPOSITIONS AND METHODS FOR INHIBITING YAP” (The United States Government as represented by the …, priority 2021, published 2024).

Columns and labels:
YAP-TEAD interaction = target: T1, YAP-TEAD interaction (Homo sapiens, UniProt P46937); assay: Co-immunoprecipitation of myc-TEAD with HA-YAP from treated LN229 cells; type: cell-based; details: LN229 GBM cells, 24 h
T1 construct: expressed in transfected cells; host or cells: LN229
Description: FIGS. 1A-G show the identification of a YAP1-TEAD1 binding interface inhibitor. […] The Gal4 DBD was fused to residues 50-171 of human YAP1 and the Gal4 AD was fused to residues 194-411 of human TEAD1. These fusions were expressed in yeast containing reporters harboring Gal4 upstream activating sequences (UAS). […] Yeast expressing either p53-DBD and SV40 large T antigen-AD fusions or YAP1-DBD and TEAD1-AD fusions were plated on selective media. Compounds were pinned onto the plate surfaces by robotic transfer and subsequently examined for halo formation (indicated by red circles). Compounds inhibiting YAP1-TEAD1 mediated growth on selective media while having no effect on p53-T antigen mediated yeast growth were considered specific. Compounds which blocked the growth of both strains were considered nonspecific and were classified as having general antifungal properties. […] His-tagged YAP (amino acids 50-171 of Accession No. NP_006097) was used in a GST pull-down assay using GST-TEAD (amino acids 194-411 of Accession No. NP_068780) immobilized on glutathione resin. Pull-down products were analyzed by SDS-PAGE and silver staining. […] Cells treated with antimycin A are shown as a negative control. […] Raw binding sensorgrams obtained at each concentration were fitted to a 1:1 binding model and Kon, Koff and KD were calculated by simultaneous non-linear regression analyses.
Protein and mRNA analyses, immunoprecipitation, in vitro bead-coupled inhibitor binding assays and HPLC analyses. […] Antigen-antibody complexes were detected using appropriate horseradish peroxidase-conjugated secondary antibodies (GE Healthcare) and enhanced chemiluminescence (Amersham ECL Prime). […] For quantitative RT-PCR, extraction of RNA was performed using Trizol® (Life Technologies). Total RNA was then quantified and integrity assessed using an Agilent 2100 Bioanalyzer (Agilent Technology). […] SYBR® Green quantitative PCR (Millipore Sigma) was performed in triplicate in 96-well optical plates on an ABI Prism 7000 Sequence Detection System (Life Technologies) according to the manufacturer's instructions. […]

LN229 and GBM39 cells = assay: Soft agar colony formation (anchorage-independent growth); type: cell-based, human; details: LN229 and GBM39, 14 days
Source text: Cells were layered in soft agar to evaluate anchorage-independent growth in the presence of the indicated concentrations of inhibitor and colonies counted following 14 days of growth. Representative crystal violet stained images are shown below. Data represent mean+S.D. of three independent experiments. […] Cells were placed in Boyden chambers and allowed to migrate towards BSA (white bars), vitronectin (light yellow bars), or fibronectin (dark yellow bars) (*, P<0.05; n=3). […] Representative crystal violet stained images are shown (200×). Data represent mean+S.D. of three independent experiments. […] Graphical data shown below represent mean+S.D. (late apoptosis; annexin V-positive, PI-positive) of three independent experiments.
Cell proliferation, clonogenic, migration, invasion and apoptosis assays. Cell proliferation was determined via Cell Titer-Glo® luminescent cell assays (Promega). Clonogenic assays were done by plating a total of 1,000 cells per well in 24-well plates in a total volume of 400 μL using a two-layered soft agar system as previously described (Masri J, et al. (2007) Cancer Res 67: 11712-11720). Cell migration assays were conducted using precoated modified Boyden chambers as previously described (Benavides-Serrato A, et al. (2017) PLoS One 12: e0176599). […]

T1 sequence (P46937 whole entry): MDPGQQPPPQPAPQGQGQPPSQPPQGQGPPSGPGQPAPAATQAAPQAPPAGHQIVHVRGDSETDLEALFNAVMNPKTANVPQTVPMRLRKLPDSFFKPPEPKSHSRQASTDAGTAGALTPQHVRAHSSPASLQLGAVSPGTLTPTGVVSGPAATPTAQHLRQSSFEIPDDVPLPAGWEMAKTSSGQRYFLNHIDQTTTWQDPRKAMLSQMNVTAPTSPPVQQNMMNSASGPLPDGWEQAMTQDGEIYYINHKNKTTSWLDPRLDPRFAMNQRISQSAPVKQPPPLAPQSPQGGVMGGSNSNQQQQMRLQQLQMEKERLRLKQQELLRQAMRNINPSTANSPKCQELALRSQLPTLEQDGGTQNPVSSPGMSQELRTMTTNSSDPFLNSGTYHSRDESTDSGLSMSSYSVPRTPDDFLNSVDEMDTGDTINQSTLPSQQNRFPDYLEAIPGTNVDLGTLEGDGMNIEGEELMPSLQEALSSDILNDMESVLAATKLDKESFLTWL

## COc1ccc(-c2cc(-c3ccccc3)nc3c2CC(=O)Nc2ccccc2-3)cc1OC [NSC682769]
YAP-TEAD interaction
  Association of YAP1 with TEAD1 in YAP1 immunoprecipitates: blocked the association of YAP1 with TEAD1
LN229 and GBM39 cells
  Clonogenic growth in soft agar: inhibited
